Experimental data taken from paper PMC7044433, “Combining DNMT and HDAC6 inhibitors increases anti-tumor immune signaling and decreases tumor burden in ovarian cancer” (Scientific Reports, 2020).

Experiments:
[1] = tested on: ARID1A mutated ovarian clear cell carcinoma; conditions: mice with ARID1A mutated ovarian clear cell carcinoma; cited from earlier work
[2] = tested on: MOSE ID8 Trp53−/−; assay: qRT-PCR of interferon stimulated genes and cytokines; assay type: cell-based, mouse; conditions: Day 7, 500 nM Aza then NextA, fold change relative to Mock
Procedure: (§1) Cells were cultured in T75 dishes to form a monolayer at 80% confluency. Combination cells were treated with 500 nM 5-azacytidine or PBS for 3 days. Cells were passaged on the fourth day and split into 2 flasks to be treated with Nexturastat or vehicle at the desired dose based on the cell line for the following 3 days. On the last day of HDACi treatment, one flask from each treatment group was stimulated with 250 ng/mL IFNγ (Peprotech, 300-02) for 4 hours. For isogeneic ID8 murine cell lines, cell were stimulated with 250 ng/mL […] (Peprotech, 315-05) for 4 hours. On the seventh day cell pellets were collected for qPCR analysis.
Total RNA was extracted using the TRIzol method (Life Technologies). RNA concentration was determined using the Thermo Scientific NanoDrop One machine and software (Thermo Scientific, 840274100PR2). […] All RT-qPCRs were run on the Applied Biosystems Quantstudio3 Real-Time PCR System, 96-well plate reader (Applied Biosystems, A28137) and using TaqMan assay Gene Expression Array (Thermo Fisher Scientific, 4331182) in human for OASL, IFI44L, IFNb1, CXCL10, CCL2, CCL5, IFI27, CD247, DNMT1, DNMT3a, DNMT3b and in mouse (Thermo Fisher Scientific, 4331182) for OASL, IFI44L, IFNb1, CXCL10, CCL2, CCL5, IFI27, and CD247. […]

[3] = tested on: Kuramochi; assay: as above; assay type: cell-based, human; conditions: Day 7, seven genes
Procedure: as §1
(§2) Total RNA was extracted using the TRIzol method (Life Technologies). RNA concentration was determined using the Thermo Scientific NanoDrop One machine and software (Thermo Scientific, 840274100PR2). One microgram total RNA was DNAse I (Thermo Scientific) treated and used to generate cDNA with the Applied Biosystems High-Capacity cDNA Reverse Transcriptase Kit (Applied Biosystems, 4368814). All RT-qPCRs were run on the Applied Biosystems Quantstudio3 Real-Time PCR System, 96-well plate reader (Applied Biosystems, A28137) and using TaqMan assay Gene Expression Array (Thermo Fisher Scientific, 4331182) in human for OASL, IFI44L, IFNb1, CXCL10, CCL2, CCL5, IFI27, CD247, DNMT1, DNMT3a, DNMT3b and in mouse (Thermo Fisher Scientific, 4331182) for OASL, IFI44L, IFNb1, CXCL10, CCL2, CCL5, IFI27, and CD247. TBP was used as a housekeeping gene for both human and murine cell lines. The ΔΔCt method was used to calculate relative expression levels. Reverse transcriptase negative cDNA synthesis reaction was performed on at least one sample per 96-well plate along with a water control to ensure accurate results.

[4] = tested on: Hey; assay: as above; assay type: cell-based, human; conditions: Day 7, 500 nM Aza then NextA, fold change relative to Mock
Procedure: as §1, §2

[5] = tested on: SKOV3 CR; assay: as above; assay type: cell-based, human; conditions: Day 7
Procedure: as §1, §2

[6] = tested on: TykNu; assay: as above; assay type: cell-based, human; conditions: Day 7, seven genes
Procedure: as §1, §2

[7] = tested on: A2780; assay: as above; assay type: cell-based, human; conditions: A2780, Day 7, 500 nM Aza then NextA, fold change relative to Mock
Procedure: as §1, §2

[8] = tested on: tumor microenvironment immune cells; assay: Immunophenotyping of ascites in ID8 Trp53−/− mouse model; assay type: in vivo; conditions: first experiment, Week 7
Procedure: Ascites and murine spleens were collected from 5 to 10 mice per group and incubated in ACK buffer (Thermo Fisher Scientific) to lyse red blood cells for 10 min and then washed. Ascites from each mouse were individually prepared for flow cytometry. The single cells collected were cultured for 4 hours in RPMI with 10% FBS and in the presence of 2 ul/ml Cell Stimulation Cocktail plus protein transport inhibitors (eBioscience, 00497503). Cells were then washed and stained for the T cell panel including: Live/Dead (Thermo Fisher Scientific, L34965), CD45 (Biolegend, 103132), CD3 (Biolegend, 152316), CD4 (Biolegend, 100453), CD8 (Biolegend, 100766), NK1.1 (Biolegend, 108753) CD 279 (Biolegend, 135205). After incubation, the cells were permeabilized (FoxP3 staining buffers; BD Bioscience, 563486). Intracellular staining was performed for FoxP3 (Biolegend, 505806) and IFN-γ (BD Bioscience, 563486).
(§3) All cells were fixed after staining using Foxp3/Transcription Factor Staining Buffer Set (eBioscience, 00-5523-00) and run on a 3-laser, 12-color BD Celesta analyzer.

[9] = tested on: ID8 Trp53−/− ovarian cancer; assay: ID8 Trp53−/− mouse model of ovarian cancer, survival and tumor burden; conditions: first experiment; for survival: i.p. Aza 0.5 mg/kg, NextA 25 mg/kg, 5 days a week, combination on alternating weeks, vs Mock
Procedure: For in vivo tumor studies, all mice were given intraperitoneal injections with 5.0 ×10^6 p53−/− isogeneic murine ovarian cancer cells suspended in 500 uL 1x phosphate buffered saline (PBS) (Corning 21-040-CV). Treatment began 1 week after tumor inoculation and ended when the tumor burden was deemed excessive for the animal. Mice were injected with 5-azacytidine and Nexturastat 5 days a week in alternating treatment (see treatment schemas in Figs. 5 and 6). All mice were given intraperitoneal injections of epigenetic drugs or their appropriate controls. Mice in the 5-azacytidine group were given 0.5 mg/kg of 5-azacytidine dissolved in 100 ul of PBS solution daily. Mice in the NexturastatA group were given 25 mg/kg of Nexturastat A dissolved in 100 ul PEG vehicle solution(70% Polyethylene glycol, 10% Tween80, 20% absolute ethanol) daily. Mice in the NextA+Aza group were given 5-azacytidine and NexturastatA on an alternating weekly basis. Mice in the control group were given a drug vehicle comprised of 70% Polyethylene glycol (Sigma 764752), 10% Tween 80 (Sigma P5188), and 20% 200 proof absolute ethanol as per the manufacturer guidelines as a vehicle control for Nexturastat or PBS as a vehicle control for 5-azacytidine.
Tumor burden was assessed via measurement of body weight, amount of ascites drained from the mice at the point where they had gained 20 to 30% of their body weight, or abdominal circumference measurements.

[10] = tested on: DNMT1 protein; assay: DNMT1 immunoblot in ovarian cancer cell lines; assay type: cell-based, human; conditions: Day 7
Procedure: (§4) Cells were cultured in T75 dishes (Greiner, 658170) to form a monolayer at 80% confluency. Combination cells were treated with 500 nM 5-azacytidine (Sigma-Aldrich) once a day for 3 days or PBS once a day for 3 days. Cells were passaged on the fourth day and split into 2 flasks to be treated with Nexturastat (StarWise, LLC) or DMSO for vehicle control at the desired dose based on the cell line for the following 3 days. On the first day of Nexturastat treatment, one flask from each treatment group was stimulated with 250 ng/mL IFNγ (Peprotech, 300-02). For isogeneic ID8 murine cell lines, on the first day of HDACi treatment cell were treated with 250 ng/mL IFNγ (Peprotech, 315-05). On the seventh day, cell pellets were collected for Western Blot or flow cytometry analysis. For cycloheximide experiments, cells were treated on the seventh day of the experiment for 0, 4 or 8 hours with 10 μM cycloheximide (Sigma, C4859).
(§5) Isolated cell pellets were lysed in RIPA buffer (Pierce, 89900) with 1X protease and phosphatase inhibitor (Pierce, A32961). […] Protein concentration was determined using a Pierce BCA Protein Assay Kit (Thermo Fisher Scientific, 23225) according to the manufacturer’s protocol. […] Bands were detected using Azure Biosystems (Dublin, California, USA) Imaging System c600. […]

[11] = tested on: HDAC activity; assay: HDAC-Glo assay, percent inhibition of HDAC activity in ovarian cancer cell lines; assay type: cell-based, human
Procedure: HDACi enzymatic function was measured using HDACglo class I/IIa Assay (Promega, G6420). Cells were seeded in a 96-well dish and treated with 500 nM 5-azacytidine and varying levels of HDACi to determine appropriate HDACi dosage. Assay measurements were collected using SpectraMax i3x multi-mode microplate reader (Molecular Devices, USA) at the recommended wavelength. […], Givinostat, and Panobinostat (SelleckChem) were used to compare enzymatic inhibition levels of Nexturastat in each cell line. Results were analyzed according to manufacturer recommendations.

[12] = tested on: ovarian cancer cell lines; assay: CellTox Green cytotoxicity assay; assay type: cell-based, human; conditions: NextA dose chosen for each cell line, 5–10 uM
Procedure: Drug toxicity levels were measured using the CellTox Assay (Promega, G8741). Cells were seeded into a 96-well dish and treated with 500 nm 5-azacytidine and varying levels of HDACi to determine suitable dosage. Cells were treated with fluorescent dye and incubated for 4 days measuring cell death according to the manufacturer’s protocol. For longer treatments, cells were seeded in a 96-well place and treated with 500 nm 5-azacytidine for 4 days and then varying levels of HDACi. Cells were treated with a fluorescent dye on the fourth day and incubated to measure cell death. Assay measurements were collected using SpectraMax i3x multi-mode microplate reader (Molecular Devices, USA) at the recommended wavelength. For our analysis, TritonX (Sigma, 9002-93-1) was used as the positive control compound to simulate cell death on all […] read days. Results were analyzed according to manufacture recommendations.

[13] = tested on: PD-L1; assay: PD-L1 whole-cell protein immunoblot; assay type: cell-based, human; conditions: IGROV-1 CR and SKOV3 CR
Procedure: as §4, §5

[14] = tested on: MHC I, IGROV-1 CR and SKOV3 CR; assay: MHC I surface expression in cisplatin-resistant cell lines; assay type: cell-based, human; conditions: flow cytometry
Procedure: as §4
(§6) Human ovarian cancer cells from day 7 of the protein protocol were stained for CD274 (eBioscience,12-5983-42) and MHC-I (eBioscience, 12-9983-42).
as §3

[15] = tested on: MHC class I, Hey human ovarian cancer cell line; assay: MHC class I cell surface expression by flow cytometry; assay type: cell-based; conditions: Day 7, flow cytometry MFI
Procedure: as §4, §6, §3

[16] = tested on: MHC class I, ID8 Trp53−/− mouse ovarian cancer cell line; assay: as above; assay type: cell-based; conditions: Day 7, flow cytometry MFI
Procedure: as §4
Murine ovarian cancer cell lines from day 7 of the protein protocol were stained for PD-L1/CD274 (BD Bioscience, 558091), PD-L2/CD273 (Biolegend, 107214), MHC-I (Invitrogen, 17-5958-82), and MHC-II (Invitrogen 56-5321-82).
as §3

[17] = tested on: IGROV-1 CR; parameters: method as in PMID 29662190; conditions: read-out: cisplatin IC50; cited from earlier work
[18] = tested on: SKOV3 CR; parameters: method as in PMID 29662190; conditions: read-out: cisplatin IC50; cited from earlier work
[19] = low doses (250–500 nM), positive controls

**Q.** For `O=C(CCCCCCNC(=O)c1cnc(N(c2ccccc2)c2ccccc2)nc1)NO` [ACY1215], which survival [1] is on record?
**A.** improved survival

**Q.** What does the source list for `Nc1ncn([C@@H]2O[C@H](CO)[C@@H](O)[C@H]2O)c(=O)n1` [Aza, 5-azacytidine]?
**A.** expression of cytokines and interferon genes [2]: significantly increased; expression of cytokines and interferon genes [3]: some upregulation; expression of cytokines and interferon genes [4]: significantly increased; expression of cytokines and interferon genes [5]: upregulated CCL2 and OASL genes; expression of cytokines and interferon genes [6]: significant increases; expression of cytokines and interferon genes [7]: significantly increased; M1 macrophages in ascites [8]: increase in M1 macrophages; ascites volume (tumor burden) ([9]; Week 7): decreased ascites volume; survival [9]: significantly increased survival; DNMT1 protein expression [10]: degrades the DNMT1 protein

**Q.** Which “inhibition of HDAC activity” value [11, 19] does the source give for `CCN(CC)Cc1ccc2cc(COC(=O)Nc3ccc(C(=O)NO)cc3)ccc2c1` [Givinostat] here?
**A.** 100%

**Q.** For `Cc1[nH]c2ccccc2c1CCNCc1ccc(/C=C/C(=O)NO)cc1` [LBH], which “inhibition of HDAC activity” value [11, 19] is on record?
**A.** 100%

**Q.** Which results are given for `CCCCN(Cc1ccc(C(=O)NO)cc1)C(=O)Nc1ccccc1` [NextA, Nexturastat A]?
**A.** expression of cytokines and interferon genes [2]: significantly increased; cell death [12]: no more than 20%; total PD-L1 protein [13]: decrease of total PD-L1 protein; expression of cytokines and interferon genes [3]: some upregulation; expression of cytokines and interferon genes [4]: significantly increased; expression of cytokines and interferon genes [5]: upregulated CCL2 and OASL genes; expression of cytokines and interferon genes [7]: significantly increased; activated NK cells in ascites [8]: favoring the presence of activated NK cells; survival [9]: did not; MHC I expression [14]: increase in MHC I expression; MHC class I cell surface expression [15]: upregulated; inhibition of HDAC activity ([11]; 5 and 10 uM): 60–80%; MHC class I cell surface expression [16]: upregulated

**Q.** For `CC(/C=C/C(=O)NO)=C\[C@@H](C)C(=O)c1ccc(N(C)C)cc1` [TSA], which “inhibition of HDAC activity” value [11, 19] is on record?
**A.** 100%

**Q.** Which results are given for `N.N.[Cl][Pt][Cl]` [cisplatin]?
**A.** IC50 [17]: 1500 nM; IC50 [18]: 10.4 µM
